In patent publication US9004743B2, “Mixing device for creating an output mixture by mixing a first material and a second material” (Revalesio Corporation, priority 2006, dated 2015):
Where two headings read alike, the source gives them in different places.

Tests used:
Tilapia = details: cited from earlier work
glutathione peroxidase = experiment: Glutathione peroxidase study; type: biochemical; details: A340 nm, 25 degrees Celsius
Description: The inventive oxygen-enriched output fluid material was tested for the presence of hydrogen peroxide by testing the reactivity with glutathione peroxidase using a standard assay (Sigma). Briefly, glutathione peroxidase enzyme cocktail was constituted in deionized water and the appropriate buffers. Water samples were tested by adding the enzymatic reagents. Continuous spectrophotometric rate determination was made at A340 nm, and room temperature (25 degrees Celsius).

reactivity with glutathione peroxidase (glutathione peroxidase) | Structure (SMILES) | final increase in weight of the fish (Tilapia; high dissolved oxygen levels (approximately 7.0 ppm)) | final increase in weight of the fish (Tilapia; low DO levels (less than 2 ppm)) | reduction in growth rates (Tilapia; low DO versus high DO) | final increase in weight of the fish (Tilapia; mid-level DO (approximately 3.5 ppm)) | reduction in growth rates (Tilapia; mid-level DO versus high DO)
 | O=O [dissolved oxygen, oxygen] | 19 grams | 1.5 g | 92% | 5 grams | 74%
strong reactivity | OO [hydrogen peroxide] |  |  |  |  | 
